Results reported in patent US11014908B2, “Chemical compounds” (Pfizer Inc., priority 2018, dated 2021).

How the values were obtained:
[1] = molecular target: T1, purified sickle cell hemoglobin (HbS) (Homo sapiens, UniProt P68871+P69905, E7V); test: Binding affinity to purified HbS by Surface Plasmon Resonance (SPR); conditions: crosslinked biotinylated HbS, 1:1 binding model
T1 construct: HbS was obtained from the blood of homozygous S/S patients; from tissue; host or cells: red blood cells of homozygous S/S patients
Procedure: Binding Affinity, Kd (uM)
The binding affinity for compounds to purified sickle cell hemoglobin (HbS) was determined using Surface Plasmon Resonance (SPR). Patient Sickle Cell blood was obtained from Boston Children's Hospital in accordance with Institutional Review Board protocols. HbS was obtained from the blood of homozygous S/S patients, and purified using the method described in: Antonini and Brunori, Hemoglobin and Myoglobin in their Reactions with Ligands. Amsterdam, London, North-Holland Publishing Company, 1971. Whole blood was separated into red blood cell and plasma components by centrifugation, after which the plasma was decanted and discarded. Packed red blood cells were washed with normal saline (0.9% NaCl) and then lysed by 2:1 dilution with cold deionized water. The hemolysate was centrifuged to remove cellular debris, and further purified with the addition of Drabkin's Buffer (2.8 M potassium phosphate), and centrifugation with Celite®. Organic phosphates (2,3-BPG) were removed via gel filtration with Sephadex® G-25. HbS and wild-type hemoglobin, hemoglobin A (HbA), were separated by […], using diethylaminoethyl (DEAE)-Sepharose® fast flow, and eluted using a pH gradient from pH 8.5-pH 7.5. Purity of the resulting HbS and HbA was determined by native gel electrophoresis and HbS fractions used further.
To stabilize the tetrameric structure of hemoglobin, HbS was crosslinked between the beta subunits (Lys82-Lys82) using bis(3,5-dibromosalicyl) fumarate, as described in: Shibayama N. et al, J Am Chem Soc 2014, 136, 13, 5097-5105 and Shibayama N. et al, Biochemistry 1991, 39, 33, 8158-8165). Crosslinked HbS was subsequently biotynylated and captured on a custom made Streptavidin sensor to achieve protein density of 4000 to 5000 resonance units (RUs) on the surface. Compound binding to HbS using SPR was tested on Sierra Sensors MASS-1 instrument. The running buffer contained 100 mM Potassium Phosphate, pH 7.5, 0.005% Tween-20, 1 mM ethylenediaminetetraacetic acid (EDTA), 0.1 mg/mL bovine serum albumin with 1% DMSO. Compound samples were injected at a flow rate of 30 μL/min for 2 minutes association and at least 5 minutes of dissociation time. A 2- or 3-fold dilution series containing at least 4 concentrations were tested for each compound. The dose range was selected based on the activity of the compounds in biochemical assays, when available. Multiple blank injections of running buffer were run before and after each compound series to allow blank subtraction for compound data in the analysis software. Positive controls were run in each experiment to monitor and maintain the activity of HbS on the surface. A DMSO curve was run at the beginning of each data set to apply an excluded volume correction to the data during analysis. The data were processed and analyzed using Sierra Sensors and Scrubber 2.0 software. The binding affinities (dissociation constant Kd) were calculated by fitting the sensorgrams to a 1:1 binding model.

[2] = molecular target: T2, HbS (Homo sapiens, UniProt P68871+P69905, E7V); test: 'R'-'T' assay (conversion of oxy HbS to deoxy HbS under deoxygenating conditions); format: biochemical; conditions: 50% inhibition of HbS 'R'-'T' conversion; 3 uM HbS, <1% O2
T2 construct: HbS was obtained from the blood of homozygous S/S patients; from tissue; host or cells: red blood cells of homozygous S/S patients
Procedure: Conversion from oxy (R, relaxed state) to deoxy (T, tense state) HbS in the presence of compound was performed to determine the ability of compounds to stabilize the oxy (R) state under deoxygenating conditions. The assay run was similar to the ‘Oxygen dissociation assay’ described in Oksenberg et al, Br J Haematology, 2016, 175, 141-153.
Assay ready compound plates were prepared by first preparing a master serial dilution plate from a 30 mM initial compound stock in 100% DMSO. From this master serial dilution plate, 167 nL of the desired compound concentration was delivered to the assay ready plates using acoustical dispensing. Plates were frozen at −20° C. until needed. Purified HbS-O2 (i.e. oxy HbS) was diluted to 3 uM in 100 mM potassium phosphate buffer, pH=7.4. 50 uL of 3 uM stock solution was added to each well of the assay ready plate and mechanically mixed eight times. Following mixing the plates were covered and incubated at room temperature for one hour with moderate shaking. Following incubation, the plates were placed in a deoxygenated environment (<1% O2) for two hours, and the conversion to deoxy HbS monitored as a function of time. Oxygenated and deoxygenated forms of hemoglobin were detected using the absorbance of the Soret peaks at 415 and 430 nm respectively, and absorbance measurements (optical density, OD) were taken at 0, 90 and 120 minutes. Background absorbance for correction was collected at 700 nm.
Data were analyzed by first subtracting baseline absorbance at 700 nm from 415 nm and 430 nm data at each timepoint, and then taking the ratio of 415/430 nm data (Ratio=[(OD415−OD700)/(OD430−OD700)]. The effect at each timepoint was calculated using the ratios from the previous calculation at time 0 and each time point of interest (Effect^time x=Ratio^time x/Ratio^time 0). Percent effect was calculated by comparing the effects of compound versus HbS only with the effects observed by the positive control compound tucaresol (percent effect=[(effect^time x compound−effect^time x HbS)/(effect^time x tucaresol−effect^time x HbS)]×100). Data were reported as the percent effect for a single point. Calculations to determine the concentration of compound for 50% inhibition (IC50 (uM)) of the HbS ‘R’-‘T’ conversion were based on the percent effect at varying compound concentration.

Compound | Kd [1] | IC50 [2]
C[C@H](Oc1cc2cc(Br)ccc2nc1N)c1cc(C(N)=O)ccc1-n1cccn1 (single isomer, unassigned) [Example 3] | 67 nM | 5.06 µM
C[C@H](Oc1cc2cc(F)ccc2nc1N)c1cc(CC(=O)O)ccc1-n1cccn1 (single isomer, unassigned) [Example 8] | 271 nM | 7.18 µM
C[C@H](Oc1cc2cc(F)ccc2nc1N)c1cc2[nH]ncc2cc1-n1cccn1 (single isomer, unassigned) [Example 59] | 47 nM | 4.5 µM
C[C@H](Oc1cc2cc(C(N)=O)ccc2nc1N)c1cc2c(cnn2CCO)cc1-n1cccn1 (single isomer, unassigned) [Example 74] | 59 nM | 4.28 µM
CC(Oc1cc2cc(C(N)=O)c(F)cc2nc1N)c1cc2[nH]ncc2cc1-n1cccn1 (stereo in doubt) [Example 65, 2-amino-7-fluoro-3-{(1R)-1-[5-(1H-pyrazol-1-yl)-1H-indazol-6-yl]ethoxy}quinoline-6-carboxamide] | 15 nM | 6.17 µM
C[C@H](Oc1cc2cc(F)ccc2nc1N)c1cc(C(N)=O)c(F)cc1-n1cccn1 [Example 1, 5-{(1S)-1-[(2-amino-6-fluoroquinolin-3-yl)oxy]ethyl}-2-fluoro-4-(1H-pyrazol-1-yl)benzamide] | 20 nM | 4.5 µM
C[C@H](Oc1cc2cc(F)c(Cl)cc2nc1N)c1cc(C(N)=O)c(F)cc1-n1cccn1 [Example 2, 5-{(1S)-1-[(2-amino-7-chloro-6-fluoroquinolin-3-yl)oxy]ethyl}-2-fluoro-4-(1H-pyrazol-1-yl)benzamide] | 21 nM | 6.82 µM
C[C@H](Oc1cc2cc(F)ccc2nc1N)c1cc(-c2n[nH]c(=O)o2)ccc1-n1cccn1 [Example 5, 5-[3-{(1S)-1-[(2-amino-6-fluoroquinolin-3-yl)oxy]ethyl}-4-(1H-pyrazol-1-yl)phenyl]-1,3,4-oxadiazol-2(3H)-one] | 14 nM | 4.38 µM
COC(=O)c1ccc(-n2cccn2)c([C@H](C)Oc2cc3cc(F)ccc3nc2N)c1 [Example 6, methyl 3-{(1S)-1-[(2-amino-6-fluoroquinolin-3-yl)oxy]ethyl}-4-(1H-pyrazol-1-yl)benzoate] | 35 nM | 4.48 µM
C[C@H](Oc1cc2cc(F)ccc2nc1N)c1cc(S(N)(=O)=O)ccc1-n1cccn1 [Example 7, 3-{(1S)-1-[(2-amino-6-fluoroquinolin-3-yl)oxy]ethyl}-4-(1H-pyrazol-1-yl)benzenesulfonamide] | 126 nM | 
C[C@H](Oc1cc2cc(F)ccc2nc1N)c1cc(C(=O)O)c(F)cc1-n1cccn1 [Example 9, 5-{(1S)-1-[(2-amino-6-fluoroquinolin-3-yl)oxy]ethyl}-2-fluoro-4-(1H-pyrazol-1-yl)benzoic Acid] | 87 nM | 4.72 µM
C[C@H](Oc1cc2cc(F)ccc2nc1N)c1cc(C(=O)NCC(=O)O)ccc1-n1cccn1 [Example 10, N-[3-{(1S)-1-[(2-amino-6-fluoroquinolin-3-yl)oxy]ethyl}-4-(1H-pyrazol-1-yl)benzoyl]glycine] | 211 nM | 5.86 µM
COCCNC(=O)c1ccc(-n2cccn2)c([C@H](C)Oc2cc3cc(F)ccc3nc2N)c1 [Example 11, 3-{(1S)-1-[(2-amino-6-fluoroquinolin-3-yl)oxy]ethyl}-N-(2-methoxyethyl)-4-(1H-pyrazol-1-yl)benzamide] | 61 nM | 4.35 µM
C[C@H](Oc1cc2cc(F)ccc2nc1N)c1cc(C(=O)NCCO)ccc1-n1cccn1 [Example 12, 3-{(1S)-1-[(2-amino-6-fluoroquinolin-3-yl)oxy]ethyl}-N-(2-hydroxyethyl)-4-(1H-pyrazol-1-yl)benzamide] | 38 nM | 4.48 µM
C[C@H](Oc1cc2cc(F)ccc2nc1N)c1cc(C(=O)NCCCO)ccc1-n1cccn1 [Example 13, 3-{(1S)-1-[(2-amino-6-fluoroquinolin-3-yl)oxy]ethyl}-N-(3-hydroxypropyl)-4-(1H-pyrazol-1-yl)benzamide] | 65 nM | 4.33 µM
C[C@H](Oc1cc2cc(F)ccc2nc1N)c1cc(C(=O)N[C@H]2C[C@H](O)C2)ccc1-n1cccn1 [Example 14, 3-{(1S)-1-[(2-amino-6-fluoroquinolin-3-yl)oxy]ethyl}-N-(trans-3-hydroxycyclobutyl)-4-(1H-pyrazol-1-yl)benzamide] | 41 nM | 4.3 µM
C[C@H](Oc1cc2cc(F)ccc2nc1N)c1cc(OCC(=O)O)ccc1-n1cccn1 [Example 15, [3-{(1S)-1-[(2-amino-6-fluoroquinolin-3-yl)oxy]ethyl}-4-(1H-pyrazol-1-yl)phenoxy]acetic Acid] | 63 nM | 3.89 µM
C[C@H](Oc1cc2cc(F)ccc2nc1N)c1cc(CCC(=O)O)ccc1-n1cccn1 [Example 16, 3-[3-{(1S)-1-[(2-amino-6-fluoroquinolin-3-yl)oxy]ethyl}-4-(1H-pyrazol-1-yl)phenyl]propanoic Acid] | 188 nM | 3.6 µM
C[C@H](Oc1cc2cc(F)ccc2nc1N)c1cc(-c2noc(=O)[nH]2)ccc1-n1cccn1 [Example 17, 3-[3-{(1S)-1-[(2-amino-6-fluoroquinolin-3-yl)oxy]ethyl}-4-(1H-pyrazol-1-yl)phenyl]-1,2,4-oxadiazol-5(4H)-one] | 14 nM | 5.05 µM
C[C@H](Oc1cc2cc(F)ccc2nc1N)c1cc(NS(C)(=O)=O)ccc1-n1cccn1 [Example 18, N-[3-{(1S)-1-[(2-amino-6-fluoroquinolin-3-yl)oxy]ethyl}-4-(1H-pyrazol-1-yl)phenyl]methanesulfonamide] | 194 nM | 7.16 µM
C[C@H](Oc1cc2c(F)ccc(F)c2nc1N)c1cc(C(=O)O)ccc1-n1cccn1 [Example 19, 3-{(1S)-1-[(2-amino-5,8-difluoroquinolin-3-yl)oxy]ethyl}-4-(1H-pyrazol-1-yl)benzoic Acid] | 64 nM | 4.5 µM
C[C@H](Oc1cc2cc(C(N)=O)ccc2nc1N)c1nc2[nH]ncc2cc1-n1cccn1 [Example 62, 2-amino-3-{(1S)-1-[5-(1H-pyrazol-1-yl)-1H-pyrazolo[3,4-b]pyridin-6-yl]ethoxy}quinoline-6-carboxamide] | 40 nM | 
C[C@H](Oc1cc2cc(F)cc(F)c2nc1N)c1cc(-c2noc(=O)[nH]2)ccc1-n1cccn1 [Example 80, (S)-3-(3-(1-((2-amino-6,8-difluoroquinolin-3-yl)oxy)ethyl)-4-(1H-pyrazol-1-yl)phenyl)-1,2,4-oxadiazol-5(4H)-one] | 36 nM | 
